The text below walks through data of patent US5972942A, “Inhibitors of farnesyl-protein transferase” (Merck & Co., Inc., priority 1997, dated 1999).

This test has as its target T1, human FPTase (Homo sapiens, UniProt P49354+P49356).
T1 construct: made in house
Nature of the test: In vitro inhibition of ras farnesyl transferase (human FPTase assay). It counts as biochemical. To be noted: 100 nM Ras-CVIM, [3H]-farnesyl diphosphate, 30 min, read-out: IC50, inhibitory activity against human FPTase.

Molecules are shown by their SMILES. Counter-ions that a name gives are not always drawn. Some results are limits rather than exact numbers.

T1 sequence (P49356 whole entry, one chain of several): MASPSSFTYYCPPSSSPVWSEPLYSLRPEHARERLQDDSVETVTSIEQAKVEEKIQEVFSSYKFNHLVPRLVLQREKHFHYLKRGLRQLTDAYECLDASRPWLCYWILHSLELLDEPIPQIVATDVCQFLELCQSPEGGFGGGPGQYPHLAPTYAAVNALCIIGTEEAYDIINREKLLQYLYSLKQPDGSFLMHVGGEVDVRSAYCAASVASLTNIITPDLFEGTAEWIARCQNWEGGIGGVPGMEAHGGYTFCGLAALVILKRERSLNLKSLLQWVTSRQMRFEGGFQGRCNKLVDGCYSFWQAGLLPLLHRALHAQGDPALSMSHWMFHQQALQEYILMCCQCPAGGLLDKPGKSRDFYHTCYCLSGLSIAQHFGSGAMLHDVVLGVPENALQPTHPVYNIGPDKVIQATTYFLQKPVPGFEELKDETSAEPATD

For `CCCC[C@H]1CN(CC(F)(F)F)C(=O)CN1Cc1cncn1Cc1ccc(C#N)cc1` [Example 1, 2(S)-n-Butyl-1-[1-(4-cyanobenzyl)-5-imidazolylmethyl]-4-(2,2,2-trifluoroethyl)piperazin-5-one dihydrochloride], the IC50 (commonly the midpoint of a concentration-inhibition curve) is at most 50 µM.
